System: primary human bronchial cells
Assay: Eicosanoid formation in calcium ionophore stimulated primary bronchial epithelial cells (LC/ESI-MSMS of AMPP amides)
Assay type: cell-based
Conditions: +Ca ionophore (A23187, 10 uM, 20 min, 37° C.); 0.47 million cells per sample
Protocol: The University of Washington Institutional Review Board approved the studies involving human subjects, and written informed consent was obtained from all participants. Primary bronchial epithelial cells were isolated from a volunteer with asthma during bronchoscopy using a nylon cytology brush of cells from subsegmental airways. To establish primary culture, the epithelial cells were seeded into a culture vessel coated with type 1 collagen in bronchial epithelial basal media (BEBM, Lonza, Allendale, N.J.) supplemented with bovine pituitary extract, insulin, hydrocortisone, gentamicin, amphotericin B, fluconazole, retinoic acid, transferrin, triiodothyronine, epinephrine, and human recombinant epidermal growth factor (serum-free BEGM) and maintained at 37° C. in a humidified incubator. After expansion in vitro, passage 2 epithelial cells were grown to >90% confluence on a 12-well plate. The medium was changed to Hanks balanced salt solution, and the cells were treated with either calcium ionophore (A23187, 10 uM) or a DMSO-containing control solution for 20 min at 37° C. In some studies, the cytosolic phospholipase A2-α inhibitor Pyr-2^6 was present at 5 uM, added from a stock solution in DMSO. The synthesis of eicosanoids was stopped by the addition of 4 volumes of ice methanol with 0.2% formic acid. […] The studies were performed in duplicate. Samples were processed for derivatization with AMPP and LC/ESI-MSMS as for the serum samples.

For `CNc1ccc2oc(C[C@H]3O[C@@]4(CC[C@H]3C)O[C@H]([C@H](C)C(=O)c3ccc[nH]3)[C@H](C)C[C@H]4C)nc2c1C(=O)O` [Ca ionophore], the “11(S)-HETE level” value was 3.7 pg, the “15(S)-HETE level” value was 7.8 pg and the Arachidonic acid level was 242 pg. It also gave a PGD2 level of 4.4 pg, a PGE2 level of 39 pg and a PGF2α level of 60 pg. It also gave a TxB2 level of 1.3 pg.
